The METLIN SMRT retention time set (Domingo-Almenara et al. 2019)

Test: gradient 5% acetonitrile 3 min, to 50% in 2 min, to 85% in 15 min, held 3 min, 100 µL/min
Settings: column: Zorbax Extend-C18 2.1 x 50 mm; eluents: water / acetonitrile, 0.1% formic acid
Method in brief: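 Pure standards were run in mixtures of ~100 molecules by HPLC coupled to a quadrupole time-of-flight mass spectrometer. The column was a Zorbax Extend-C18 (2.1 × 50 mm, 1.8 μm) at 100 μL/min, with water and acetonitrile each containing 0.1% formic acid, in positive and negative ionization mode. Dead and dwell volumes were 40 μL and 900 μL. Retention time was taken from computationally picked adduct peaks, each manually inspected, with data collected over 3 months.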

RP-LC retention time [s] | SMILES
759 | COc1ccc(N2CCCCn3c2nc2c3c(=O)n(C)c(=O)n2C)cc1
1060 | CCOC(=O)COc1cc(-c2ccc(C)cc2)nc2ccc(NC(=O)C3CCC3)cc12
715 | O=C(NCCc1ccccc1)N1CCC(c2noc(-c3cnccn3)n2)C1 (stereo not drawn)
664 | Cc1ccc(Nc2cc(N3CCC(C(=O)NCc4ccco4)CC3)ncn2)cc1
948 | Cc1cc(F)ccc1NC(=O)Cn1cc2c(n1)CCC(C)C2 (stereo not drawn)
725 | COCCNC(=O)C1CCN(C2=NS(=O)(=O)C(c3ccc(Cl)cc3)=C2C)CC1
748 | O=C(Nc1ccccc1C(F)(F)F)C1CN(C(=O)c2ccc(F)c(F)c2)C1
775 | CCN1CCN(c2ccc(NC(=O)c3ccc(Cl)cc3)cn2)C1=O
878 | O=C(c1ccc2c(=O)n3c(nc2c1)CCCC3)N1CCC(Cc2ccccc2)CC1
793 | Cc1nn(Cc2nc(-c3ccc(NC(=O)C4CCCO4)cc3)oc2C)c(C)c1C (stereo not drawn)
874 | CCc1ccc(NC(=O)Cn2nc(N3CCOCC3)c3ccccc3c2=O)cc1
812 | Cc1cc(C2CCCN2C(=O)Nc2ccccc2C(F)(F)F)on1 (stereo not drawn)
843 | Cc1c(C(=O)NC2CC2)cnn1-c1cc(-c2nc(C3CC3)no2)ccn1
659 | COc1ccc2c(c1)CCc1c-2n[nH]c1C(=O)N1CCN(c2cc(=O)n(C)c(=O)n2C)CC1
937 | Cn1nc(-c2nc(C3CC3)no2)c2c1CCN(C(=O)c1ccc(OC(F)(F)F)cc1)C2
693 | O=C(NCCN1CCOCC1)C1CCN(c2ccc3nnc(-c4ccccc4F)n3n2)CC1
761 | CCC(=O)N1CCc2ccccc2C1C(=O)NCc1ccc2c(c1)OCO2 (stereo not drawn)
672 | COc1cccc(-c2nc3cnccn3c2NCCC(=O)Nc2ccc3c(c2)OCCO3)c1

More lines, now with the values behind:

SMILES | RP-LC retention time [s]
CSc1nc(Nc2cccc(Cl)c2)c(C#N)c(-c2ccccc2)n1 | 1280
Cc1nc(CCNC(=O)[C@H]2CCCN2C(=O)c2ccccc2Cl)cs1 | 659
O=C(NC1CCN(C(=O)C2CC2)C1)C1CCC1 (stereo not drawn) | 606
COc1ccc2cc(C(=O)NCCC(=O)NCCc3c[nH]c4ccccc34)[nH]c2c1 | 775
COC[C@@H]1CN(S(=O)(=O)c2cccc(C#N)c2)C[C@H]1c1ccncc1 | 630
CS(=O)(=O)Nc1ccc(C2(C(=O)NCc3ccc(F)cc3Cl)CCCCC2)cc1 | 979
CN1C(C)(C)CCCC1(C)C | 614
COCCn1cc(CCNC(=O)Nc2cccc(C)c2)c2cccnc21 | 728
Cc1ccc(-c2nc3cnccn3c2Nc2ccc(C(C)C)cc2)cc1 | 1140
Cc1nn(CC(=O)NCCc2c[nH]c3ccccc23)c(=O)c2noc(C)c12 | 708
COC(=O)c1nnn(-c2cccc(C)c2C)c1C(=O)OC | 878
CNC(=O)CN(C)C(=O)c1cc2c(s1)N(CC1CC1)CCCC2 | 818
Cc1cc(C)n(CCNC(=O)Cc2ccc(SC(C)C)cc2)n1 | 755
c1cn(-c2cc(N3CCSCC3)ncn2)cn1 | 591
CCCCn1cc(S(=O)(=O)Nc2cccc(C)c2)c2cccnc21 | 976
CCn1cc(C(=O)Nc2cc(C)ccc2C)c2cccnc21 | 854
Cc1ccc2cc(CCC(=O)NCc3ccc(N4CCOCC4)cc3)c(=O)[nH]c2c1 | 655
CS(=O)(=O)c1ccc(Nc2ncccc2S(N)(=O)=O)cc1 | 668
COc1ccc(CC(=O)NCc2c(C)cc(C)nc2-c2ccc(OC)cc2)cc1 | 708
CCCNC(=O)N(Cc1c(C)nn(-c2ccccc2)c1Oc1ccccc1OC)CC1CCCO1 (stereo not drawn) | 917
